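Grown in 96-well plates, cells were treated for 48 hours with each compound at five concentrations. Insufficient inhibition: endpoint recorded as highest concentration tested. Definition used: TGI = concentration required for complete inhibition of growth.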
Legend:
Assay in all cases: NCI anticancer screen, dose series, 48 h
[1] = system: 786-0 renal
[2] = system: A498 renal
[3] = system: A549 NSCLC
[4] = system: ACHN renal
[5] = system: CCRF-CEM leukemia
[6] = system: COLO 205 colon
[7] = system: DMS 114 small cell lung
[8] = system: DMS 273 small cell lung
[9] = system: EKVX NSCLC
[10] = system: HCC-2998 colon
[11] = system: HCT-116 colon
[12] = system: HCT-15 colon
[13] = system: HL-60(TB) leukemia
[14] = system: HOP-18 NSCLC
[15] = system: HOP-62 NSCLC
[16] = system: HOP-92 NSCLC
[17] = system: HT29 colon
[18] = system: IGROV1 ovarian
[19] = system: K-562 leukemia
[20] = system: KM12 colon
[21] = system: KM20L2 colon
[22] = system: LOX IMVI melanoma
[23] = system: LXFL 529 NSCLC
[24] = system: M14 melanoma
[25] = system: M19-MEL melanoma
[26] = system: MALME-3M melanoma
[27] = system: MOLT-4 leukemia
[28] = system: NCI-H226 lung
[29] = system: NCI-H23 lung
[30] = system: NCI-H460 lung
[31] = system: NCI-H522 lung
[32] = system: OVCAR-3 ovarian
[33] = system: OVCAR-4 ovarian
[34] = system: OVCAR-5 ovarian
[35] = system: OVCAR-8 ovarian
[36] = system: RPMI-8226 leukemia
[37] = system: RXF 393 renal
[38] = system: SF-268 CNS
[39] = system: SF-295 CNS
[40] = system: SF-539 CNS
[41] = system: SK-MEL-2 melanoma
[42] = system: SK-MEL-28 melanoma
[43] = system: SK-MEL-5 melanoma
[44] = system: SK-OV-3 ovarian
[45] = system: SN12C renal
[46] = system: SNB-19 CNS
[47] = system: SNB-75 CNS
[48] = system: SNB-78 CNS
[49] = system: SR leukemia
[50] = system: SW-620 colon
[51] = system: TK-10 renal
[52] = system: U251 CNS
[53] = system: UACC-257 melanoma
[54] = system: UACC-62 melanoma
[55] = system: UO-31 renal
[56] = system: XF 498 CNS
[57] = system: CAKI-1 renal

Compound: C[C@]12CCC(=O)C=C1CC[C@@H]1C2CC[C@@]2(C)C1CC[C@@H]2OC(=O)C12OC1CCC2=O (some centres undefined)
- TGI [1]: 30 µM
- TGI [2]: 35.6 µM
- TGI [3]: 54.6 µM
- TGI [4]: 29.3 µM
- TGI [5]: 32.6 µM
- TGI [6]: 34.4 µM
- TGI [7]: 34.3 µM
- TGI [8]: 31.1 µM
- TGI [9]: 31.9 µM
- TGI [10]: 59 µM
- TGI [11]: 29.2 µM
- TGI [12]: 30.7 µM
- TGI [13]: 33.5 µM
- TGI [14]: 31.7 µM
- TGI [15]: 70 µM
- TGI [16]: 37.2 µM
- TGI [17]: 33.4 µM
- TGI [18]: 23.6 µM
- TGI [19]: 59.4 µM
- TGI [20]: 35 µM
- TGI [21]: 34.3 µM
- TGI [22]: 31.1 µM
- TGI [23]: 28 µM
- TGI [24]: 32.9 µM
- TGI [25]: 30.3 µM
- TGI [26]: 33.9 µM
- TGI [27]: 32.6 µM
- TGI [28]: 38.2 µM
- TGI [29]: 33.6 µM
- TGI [30]: 31.8 µM
- TGI [31]: 23.1 µM
- TGI [32]: 32.9 µM
- TGI [33]: 41.5 µM
- TGI [34]: 33.9 µM
- TGI [35]: 38.6 µM
- TGI [36]: 52.1 µM
- TGI [37]: 16.8 µM
- TGI [38]: 41.2 µM
- TGI [39]: 34.7 µM
- TGI [40]: 36.6 µM
- TGI [41]: 29.8 µM
- TGI [42]: 31.6 µM
- TGI [43]: 29.7 µM
- TGI [44]: > 100 µM
- TGI [45]: 55.5 µM
- TGI [46]: 44.3 µM
- TGI [47]: 33.9 µM
- TGI [48]: 33.9 µM
- TGI [49]: 53.4 µM
- TGI [50]: 32.1 µM
- TGI [51]: 35.9 µM
- TGI [52]: 29.1 µM
- TGI [53]: 35.9 µM
- TGI [54]: 35.2 µM
- TGI [55]: 30.3 µM
- TGI [56]: 27.9 µM

Compound: CC(C)=Cc1cc(C(=O)NCCNC(=O)c2cc(C=C(C)C)nc(NC#N)n2)nc(NC#N)n1
- TGI [1]: > 100 µM
- TGI [2]: > 100 µM
- TGI [3]: > 100 µM
- TGI [4]: > 100 µM
- TGI [57]: > 100 µM
- TGI [5]: > 100 µM
- TGI [6]: > 100 µM
- TGI [7]: > 100 µM
- TGI [9]: > 100 µM
- TGI [10]: > 100 µM
- TGI [11]: > 100 µM
- TGI [12]: > 100 µM
- TGI [13]: > 100 µM
- TGI [14]: > 100 µM
- TGI [15]: > 100 µM
- TGI [16]: > 100 µM
- TGI [17]: > 100 µM
- TGI [18]: > 100 µM
- TGI [19]: > 100 µM
- TGI [20]: > 100 µM
- TGI [21]: > 100 µM
- TGI [22]: > 100 µM
- TGI [23]: > 100 µM
- TGI [24]: > 100 µM
- TGI [25]: > 100 µM
- TGI [26]: > 100 µM
- TGI [27]: > 100 µM
- TGI [28]: > 100 µM
- TGI [29]: > 100 µM
- TGI [30]: > 100 µM
- TGI [31]: > 100 µM
- TGI [32]: > 100 µM
- TGI [33]: > 100 µM
- TGI [34]: > 100 µM
- TGI [35]: > 100 µM
- TGI [36]: > 100 µM
- TGI [37]: > 100 µM
- TGI [38]: > 100 µM
- TGI [39]: > 100 µM
- TGI [40]: > 100 µM
- TGI [42]: > 100 µM
- TGI [43]: > 100 µM
- TGI [44]: > 100 µM
- TGI [45]: > 100 µM
- TGI [46]: > 100 µM
- TGI [47]: > 100 µM
- TGI [50]: > 100 µM
- TGI [51]: > 100 µM
- TGI [52]: > 100 µM
- TGI [53]: > 100 µM
- TGI [54]: > 100 µM
- TGI [55]: > 100 µM
- TGI [56]: > 100 µM

— PubChem BioAssay (NCI)
